From paper PMC3760508 (Journal of medicinal chemistry, 2009)

Assays:
cruzain = cruzain (Trypanosoma cruzi, UniProt P25779); experiment: biochemical; type: biochemical; settings: for change of cruzain IC50 between low and high detergent concentration: 0.001% vs 0.01% Triton X-100; for cruzain inhibition (in words): Figure 1 analogs
AmpC β-lactamase = AmpC β-lactamase (Escherichia coli, UniProt P00811); experiment: AmpC β-lactamase detergent-sensitive inhibition; type: biochemical; settings: reversal by 0.01% Triton
Chain of AmpC β-lactamase (P00811 20-377): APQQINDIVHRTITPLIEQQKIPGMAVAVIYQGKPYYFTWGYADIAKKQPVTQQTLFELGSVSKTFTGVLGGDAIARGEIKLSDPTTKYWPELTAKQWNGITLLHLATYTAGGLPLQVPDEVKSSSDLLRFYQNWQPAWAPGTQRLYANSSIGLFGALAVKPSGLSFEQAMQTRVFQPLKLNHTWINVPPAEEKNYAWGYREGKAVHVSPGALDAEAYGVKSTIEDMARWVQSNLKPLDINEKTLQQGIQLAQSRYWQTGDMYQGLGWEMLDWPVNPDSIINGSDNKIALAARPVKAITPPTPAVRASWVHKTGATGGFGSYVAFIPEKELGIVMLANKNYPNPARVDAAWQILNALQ

particle = type: physicochemical; settings: for particles? lowest evaluated concentration at which particle formation was observed: flow cytometry, in some cases confirmed by DLS
[1] = high Triton (0.01% Triton X-100), 23 at 50 μM
[2] = low Triton (0.001% Triton X-100), 23 at 5 μM, 1 at 25 μM

Chain of cruzain (P25779 123-467): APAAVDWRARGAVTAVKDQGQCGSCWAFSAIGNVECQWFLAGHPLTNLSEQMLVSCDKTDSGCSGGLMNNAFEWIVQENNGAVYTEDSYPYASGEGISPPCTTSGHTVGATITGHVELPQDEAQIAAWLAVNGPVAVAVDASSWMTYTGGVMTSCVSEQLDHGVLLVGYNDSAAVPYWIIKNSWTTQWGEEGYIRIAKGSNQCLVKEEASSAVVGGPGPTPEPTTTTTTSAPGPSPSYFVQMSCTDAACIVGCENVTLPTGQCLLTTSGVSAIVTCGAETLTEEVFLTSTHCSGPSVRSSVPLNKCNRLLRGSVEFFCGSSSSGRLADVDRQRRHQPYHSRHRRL

Row | particles? lowest evaluated concentration at which particle formation was observed (particle) [µM] | Compound | change of cruzain IC50 between low and high detergent concentration (cruzain) | mode of cruzain inhibition (cruzain; [1]) | further results
1 | – | CCC(NC(=O)COC(=O)c1cccnc1N)c1ccc(Br)cc1 (stereo not shown) [Compound 3] | essentially unaltered | competitive inhibitors | –
2 | – | Nc1ncccc1C(=O)OCC(=O)NC1CCCCCC1 [Compound 2] | essentially unaltered | competitive inhibitors | –
3 | >100 | Nc1ccccc1-c1nnc(C(=O)Nc2ccc3oc4c(c3c2)CCCC4)o1 [Compound 12] | – | – | formation of colloidal aggregates (particles) (particle; DLS and flow cytometry, 0.001% Triton X-100, relevant inhibitory concentrations): the exception
4 | – | O=C(COC(=O)c1ccccn1)Nc1cc(Cl)ccc1Cl [Compound 4] | – | – | cruzain inhibition (in words) (cruzain): essentially inactive
5 | – | Cc1cccc(C(=O)OCC(=O)Nc2cc(Cl)ccc2Cl)c1 [Compound 5] | – | – | cruzain inhibition (in words) (cruzain): essentially inactive
6 | – | Cc1cc(NC(=O)c2nnc(-c3ccccc3N)o2)n[nH]1 [Compound 25] | – | – | detergent-reversible inhibition of AmpC β-lactamase (AmpC β-lactamase): the exception
7 | – | Nc1ccccc1-c1nnc(C(=O)Nc2cc(-c3cccs3)[nH]n2)o1 [Compound 23] | – | competitive | IC50 (cruzain): 82.4 µM; mode of cruzain inhibition (cruzain; [2]): non-competitive
8 | >200 | CCN1CCC[C@H]1CNC(=O)c1nnc(-c2ccccc2N)o1 [Compound 18] | – | – | –

Row | Compound | particles? lowest evaluated concentration at which particle formation was observed (particle) [µM] | change of cruzain IC50 between low and high detergent concentration (cruzain) | mode of cruzain inhibition (cruzain; [1]) | further results
9 | Nc1ncccc1C(=O)OCC(=O)Nc1cc(Cl)ccc1Cl [Compound 1] | 25 | ~ 3 fold | competitive inhibition | dependence of cruzain inhibition on incubation time (cruzain; 0.01% Triton X-100): independent of incubation time; mode of cruzain inhibition (cruzain; [2]): non-competitive; detergent-reversible inhibition of AmpC β-lactamase (AmpC β-lactamase): found to inhibit AmpC, and its inhibition was reversed by 0.01% Triton
